Data published in the kinase profiling compilation of Christmann-Franck et al. (2016).

Assays:
Test in all cases: radiometric filter-binding kinase assay, Kinase HotSpot
Conditions in all cases: compound 0.5 µM; ATP 10 µM
[1] = biological target: PRKD1 (human) (UniProt Q15139)
[2] = biological target: TYK2 JH1 catalytic (human) (UniProt P29597)
[3] = biological target: MAP3K10 (human) (UniProt Q02779)
[4] = biological target: NEK9 (human) (UniProt Q8TD19)
[5] = biological target: SRPK2 (human) (UniProt P78362)
[6] = biological target: PTK2 (human) (UniProt Q05397)
[7] = biological target: MAPK1 (human) (UniProt P28482)
[8] = biological target: OXSR1 (human) (UniProt O95747)
[9] = biological target: MAPKAPK3 (human) (UniProt Q16644)
[10] = biological target: CAMK4 (human) (UniProt Q16566)
[11] = biological target: CAMK1D (human) (UniProt Q8IU85)
[12] = biological target: STK10 (human) (UniProt O94804)
[13] = biological target: MST1R (human) (UniProt Q04912)
[14] = biological target: GSK3A (human) (UniProt P49840)
[15] = biological target: STK25 (human) (UniProt O00506)
[16] = biological target: CDK5 CDK5R1 p35 (human) (UniProt Q00535+Q15078)
[17] = biological target: STK17A (human) (UniProt Q9UEE5)
[18] = biological target: HIPK4 (human) (UniProt Q8NE63)
[19] = biological target: YES1 (human) (UniProt P07947)
[20] = biological target: PRKCD (human) (UniProt Q05655)
[21] = biological target: ROCK2 (human) (UniProt O75116)
[22] = biological target: MAP2K2 (human) (UniProt P36507)
[23] = biological target: PRKCA (human) (UniProt P17252)
[24] = biological target: CSNK1G3 (human) (UniProt Q9Y6M4)
[25] = biological target: ULK2 (human) (UniProt Q8IYT8)
[26] = biological target: TSSK1B (human) (UniProt Q9BXA7)
[27] = biological target: NLK (human) (UniProt Q9UBE8)
[28] = biological target: TXK (human) (UniProt P42681)
[29] = biological target: CDK4 CCND1 (human) (UniProt P24385+P11802)
[30] = biological target: DYRK3 (human) (UniProt O43781)
[31] = biological target: NEK11 (human) (UniProt Q8NG66)
[32] = biological target: FGFR4 (human) (UniProt P22455)
[33] = biological target: CSNK1D (human) (UniProt P48730)
[34] = biological target: CSNK2A2 (human) (UniProt P19784)
[35] = biological target: PHKG1 (human) (UniProt Q16816)
[36] = biological target: PKN1 (human) (UniProt Q16512)
[37] = biological target: RPS6KB2 (human) (UniProt Q9UBS0)
[38] = biological target: MAPK3 (human) (UniProt P27361)
[39] = biological target: SRMS (human) (UniProt Q9H3Y6)
[40] = biological target: CAMKK1 (human) (UniProt Q8N5S9)
[41] = biological target: EPHA2 (human) (UniProt P29317)
[42] = biological target: PDGFRB (human) (UniProt P09619)

Sequence of CAMKK1 (human) (Q8N5S9 whole entry, looked up): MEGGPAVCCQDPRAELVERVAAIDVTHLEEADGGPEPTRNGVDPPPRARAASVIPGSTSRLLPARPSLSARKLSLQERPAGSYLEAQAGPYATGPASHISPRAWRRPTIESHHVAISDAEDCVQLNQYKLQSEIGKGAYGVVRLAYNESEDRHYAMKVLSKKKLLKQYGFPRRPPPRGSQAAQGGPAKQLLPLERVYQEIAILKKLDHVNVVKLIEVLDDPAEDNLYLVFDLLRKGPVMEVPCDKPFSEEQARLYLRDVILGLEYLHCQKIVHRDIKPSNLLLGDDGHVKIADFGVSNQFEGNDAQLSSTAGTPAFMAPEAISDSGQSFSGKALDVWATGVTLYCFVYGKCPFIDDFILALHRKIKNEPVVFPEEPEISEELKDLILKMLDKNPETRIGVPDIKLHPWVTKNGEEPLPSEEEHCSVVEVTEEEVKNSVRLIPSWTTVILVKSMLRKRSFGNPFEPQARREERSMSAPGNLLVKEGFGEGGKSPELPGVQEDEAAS
Sequence of MAP3K10 (human) (Q02779 whole entry, looked up): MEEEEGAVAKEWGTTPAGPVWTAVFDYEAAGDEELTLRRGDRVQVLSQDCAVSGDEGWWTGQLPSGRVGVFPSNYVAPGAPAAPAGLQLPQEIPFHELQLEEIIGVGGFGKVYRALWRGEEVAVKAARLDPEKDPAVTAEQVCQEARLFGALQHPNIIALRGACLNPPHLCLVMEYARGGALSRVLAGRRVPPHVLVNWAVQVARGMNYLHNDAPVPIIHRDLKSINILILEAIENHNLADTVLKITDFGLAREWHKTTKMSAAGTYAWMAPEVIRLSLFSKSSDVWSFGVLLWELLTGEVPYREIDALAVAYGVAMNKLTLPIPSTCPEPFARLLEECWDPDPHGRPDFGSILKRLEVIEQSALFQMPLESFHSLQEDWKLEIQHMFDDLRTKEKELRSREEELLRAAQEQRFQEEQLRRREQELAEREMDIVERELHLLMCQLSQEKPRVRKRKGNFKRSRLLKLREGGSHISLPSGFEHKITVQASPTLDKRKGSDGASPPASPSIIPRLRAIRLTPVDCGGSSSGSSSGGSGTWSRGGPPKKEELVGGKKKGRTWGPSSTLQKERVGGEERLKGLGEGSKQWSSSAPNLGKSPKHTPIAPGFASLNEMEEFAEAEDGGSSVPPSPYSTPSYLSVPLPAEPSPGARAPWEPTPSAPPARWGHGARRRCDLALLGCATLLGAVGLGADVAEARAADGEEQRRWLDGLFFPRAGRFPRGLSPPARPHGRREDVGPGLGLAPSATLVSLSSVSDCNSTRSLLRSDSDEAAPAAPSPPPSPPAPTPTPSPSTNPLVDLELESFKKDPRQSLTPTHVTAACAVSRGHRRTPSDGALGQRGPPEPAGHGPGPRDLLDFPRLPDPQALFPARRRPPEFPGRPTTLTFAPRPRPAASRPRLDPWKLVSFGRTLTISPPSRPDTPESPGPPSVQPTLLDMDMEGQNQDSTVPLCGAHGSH
Sequence of STK17A (human) (Q9UEE5 whole entry, looked up): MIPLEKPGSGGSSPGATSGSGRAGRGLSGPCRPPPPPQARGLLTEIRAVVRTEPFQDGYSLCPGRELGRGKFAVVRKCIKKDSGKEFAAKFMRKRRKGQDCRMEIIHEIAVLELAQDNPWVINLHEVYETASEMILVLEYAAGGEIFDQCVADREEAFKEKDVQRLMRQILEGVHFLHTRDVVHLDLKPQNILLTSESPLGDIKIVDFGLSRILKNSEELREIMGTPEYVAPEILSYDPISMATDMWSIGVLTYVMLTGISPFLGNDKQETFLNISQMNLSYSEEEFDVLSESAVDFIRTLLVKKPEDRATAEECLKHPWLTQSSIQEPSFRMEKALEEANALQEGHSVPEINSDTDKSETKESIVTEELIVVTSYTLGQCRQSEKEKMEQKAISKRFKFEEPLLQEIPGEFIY
Sequence of PRKCD (human) (Q05655 whole entry, looked up): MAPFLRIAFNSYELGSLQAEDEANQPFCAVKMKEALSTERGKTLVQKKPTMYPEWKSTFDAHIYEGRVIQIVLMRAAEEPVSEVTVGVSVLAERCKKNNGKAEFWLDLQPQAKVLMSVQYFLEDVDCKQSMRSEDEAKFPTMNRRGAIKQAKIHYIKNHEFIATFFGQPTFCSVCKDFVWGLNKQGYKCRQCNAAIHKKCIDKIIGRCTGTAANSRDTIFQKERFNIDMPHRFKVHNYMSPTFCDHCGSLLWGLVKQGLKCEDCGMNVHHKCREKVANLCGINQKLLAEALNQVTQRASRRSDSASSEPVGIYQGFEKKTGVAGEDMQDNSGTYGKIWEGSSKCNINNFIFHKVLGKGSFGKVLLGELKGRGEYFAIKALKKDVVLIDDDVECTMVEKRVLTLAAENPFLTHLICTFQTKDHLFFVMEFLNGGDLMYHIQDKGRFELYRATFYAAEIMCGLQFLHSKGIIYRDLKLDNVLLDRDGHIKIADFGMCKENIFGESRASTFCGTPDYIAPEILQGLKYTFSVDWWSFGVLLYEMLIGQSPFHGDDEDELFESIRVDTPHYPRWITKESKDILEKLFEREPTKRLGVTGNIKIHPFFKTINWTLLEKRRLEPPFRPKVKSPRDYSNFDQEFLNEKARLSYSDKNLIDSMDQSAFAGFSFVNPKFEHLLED
Sequence of CSNK1G3 (human) (Q9Y6M4 whole entry, looked up): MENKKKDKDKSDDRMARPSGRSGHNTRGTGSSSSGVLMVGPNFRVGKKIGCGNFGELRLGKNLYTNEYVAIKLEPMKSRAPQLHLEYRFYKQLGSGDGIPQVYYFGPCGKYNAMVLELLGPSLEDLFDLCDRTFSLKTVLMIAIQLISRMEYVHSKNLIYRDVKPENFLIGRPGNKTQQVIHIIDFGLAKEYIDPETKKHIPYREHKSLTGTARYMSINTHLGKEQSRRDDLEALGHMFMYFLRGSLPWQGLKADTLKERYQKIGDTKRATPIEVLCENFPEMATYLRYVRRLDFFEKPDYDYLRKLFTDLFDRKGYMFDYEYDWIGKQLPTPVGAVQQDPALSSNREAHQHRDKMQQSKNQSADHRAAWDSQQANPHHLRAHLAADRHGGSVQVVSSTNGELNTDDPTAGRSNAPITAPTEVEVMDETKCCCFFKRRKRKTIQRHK
Sequence of DYRK3 (human) (O43781 whole entry, looked up): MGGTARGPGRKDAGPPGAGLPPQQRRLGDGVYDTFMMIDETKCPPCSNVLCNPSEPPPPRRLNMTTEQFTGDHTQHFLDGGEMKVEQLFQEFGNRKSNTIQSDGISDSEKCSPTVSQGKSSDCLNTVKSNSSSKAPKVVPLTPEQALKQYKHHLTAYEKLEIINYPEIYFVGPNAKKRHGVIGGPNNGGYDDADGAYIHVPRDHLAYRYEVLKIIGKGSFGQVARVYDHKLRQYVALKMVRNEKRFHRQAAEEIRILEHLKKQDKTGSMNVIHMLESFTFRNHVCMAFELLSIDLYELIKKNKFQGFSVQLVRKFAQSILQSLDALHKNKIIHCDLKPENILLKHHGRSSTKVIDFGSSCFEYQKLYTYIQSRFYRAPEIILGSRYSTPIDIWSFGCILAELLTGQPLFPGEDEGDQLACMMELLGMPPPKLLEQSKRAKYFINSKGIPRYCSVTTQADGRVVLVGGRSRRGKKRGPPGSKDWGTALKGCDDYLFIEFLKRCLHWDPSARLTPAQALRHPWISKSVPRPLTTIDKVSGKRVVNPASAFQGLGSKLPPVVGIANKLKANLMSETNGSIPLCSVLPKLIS
Sequence of RPS6KB2 (human) (Q9UBS0 whole entry, looked up): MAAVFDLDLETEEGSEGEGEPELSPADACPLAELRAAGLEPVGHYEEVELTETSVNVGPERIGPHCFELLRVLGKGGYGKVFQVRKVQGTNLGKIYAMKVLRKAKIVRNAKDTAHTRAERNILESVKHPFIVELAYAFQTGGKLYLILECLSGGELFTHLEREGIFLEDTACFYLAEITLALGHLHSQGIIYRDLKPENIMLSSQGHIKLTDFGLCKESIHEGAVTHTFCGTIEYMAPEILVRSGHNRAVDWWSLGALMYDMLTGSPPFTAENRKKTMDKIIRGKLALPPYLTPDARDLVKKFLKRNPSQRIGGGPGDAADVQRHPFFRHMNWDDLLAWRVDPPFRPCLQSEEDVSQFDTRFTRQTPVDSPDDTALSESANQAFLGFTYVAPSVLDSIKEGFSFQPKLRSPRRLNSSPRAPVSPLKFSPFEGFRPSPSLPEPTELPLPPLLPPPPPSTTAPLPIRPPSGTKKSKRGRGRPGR

COc1cc2c(N3CCN(C(=O)Nc4ccc(OC(C)C)cc4)CC3)ncnc2cc1OCCCN1CCCCC1
residual activity [1]: 96.1%
residual activity [2]: 97.9%
residual activity [3]: 101%
residual activity [4]: 97.2%
residual activity [5]: 103%
residual activity [6]: 101%
residual activity [7]: 87%
residual activity [8]: 95.8%
residual activity [9]: 103%
residual activity [10]: 99.3%
residual activity [11]: 110%
residual activity [12]: 95%
residual activity [13]: 99.2%
residual activity [14]: 105%
residual activity [15]: 93.4%
residual activity [16]: 99.4%
residual activity [17]: 103%
residual activity [18]: 99.5%
residual activity [19]: 86.6%
residual activity [20]: 101%
residual activity [21]: 90.8%
residual activity [22]: 116%
residual activity [23]: 109%
residual activity [24]: 95%
residual activity [25]: 100%
residual activity [26]: 96.8%
residual activity [27]: 105%
residual activity [28]: 105%
residual activity [29]: 92.5%
residual activity [30]: 109%
residual activity [31]: 92.5%
residual activity [32]: 87.8%
residual activity [33]: 90.9%
residual activity [34]: 92.9%
residual activity [35]: 92.6%
residual activity [36]: 108%
residual activity [37]: 102%
residual activity [38]: 106%
residual activity [39]: 95.8%
residual activity [40]: 90.3%
residual activity [41]: 102%

N#Cc1c(NC(=O)c2cccc3ccccc23)sc2c1CCCC2
residual activity [1]: 101%
residual activity [2]: 100%
residual activity [3]: 85.4%
residual activity [4]: 96%
residual activity [5]: 99.2%
residual activity [6]: 101%
residual activity [7]: 87.5%
residual activity [8]: 103%
residual activity [9]: 102%
residual activity [10]: 108%
residual activity [11]: 120%
residual activity [12]: 97.7%
residual activity [13]: 92.5%
residual activity [14]: 97.2%
residual activity [15]: 95.7%
residual activity [16]: 105%
residual activity [17]: 104%
residual activity [18]: 110%
residual activity [19]: 104%
residual activity [20]: 94.1%
residual activity [21]: 98%
residual activity [22]: 106%
residual activity [23]: 99.5%
residual activity [24]: 104%
residual activity [25]: 112%
residual activity [26]: 94.9%
residual activity [27]: 99.4%
residual activity [28]: 97%
residual activity [42]: 98.9%
residual activity [29]: 98.7%
residual activity [30]: 128%
residual activity [31]: 105%
residual activity [32]: 109%
residual activity [33]: 106%
residual activity [34]: 92.2%
residual activity [35]: 93.8%
residual activity [36]: 108%
residual activity [37]: 100%
residual activity [38]: 97.1%
residual activity [39]: 106%
residual activity [40]: 109%
